Entries after “also recorded” stand apart in the source; their conditions may differ.
Experiments:
MIP 101 cells = assay: Peptide assay, cell viability (MTS), 5FU sensitive cells; type: cell-based; conditions: for cell viability: 96 or 200 μg/ml
Description: (§1) Sensitive MIP 101 and resistant MIP/5FU cells were seeded at a density of 8,000 cells/well (96-well plate) in DMEM supplemented with 10% FBS, 1% penicillin/streptomycin. After incubation at 37° C. with 5% CO2 for 48 hrs, the media was removed and fresh serum-free conditioned medium (VP-SFM, Invitrogen) containing the peptide of interest was incubated for an additional 48 hrs in the presence or absence of 500 μM 5-FU. Cell viability was assessed by MTS assay.
(§2) Peptides were custom synthesized by Sigma. Peptides A, A1, A2, A3 were dissolved in 0.1% DMSO. Peptides B8, B14, B8-scramble and B14-scramble were dissolved in PBS. For the MTS cell viability assay, a dose response curve was obtained using a “high” peptide concentration of 200 μg/ml, and a “low” peptide concentration of […].
(§3) For the MTS assay, 3-(4,5-dimethylthiazol-2-yl)-5-(3-carboxy-methoxyphenyl)-2-(4-sulfophenyl)-2H-tetrazolium inner salt (MTS) and phenazine methosulfate (PMS), purchased from Promega (Madison, Wis.), were mixed in the proportions 2:0.92 μg/ml, and 25 μl of the mixture was added to each well. After incubation at 37° C. with 5% CO2 for 2 h, the absorbance of each well at 490 nm was measured in a 96-well plate reader (Versa Max, version 4.8, Molecular Devices Co.) according to the manufacturer's instructions. Cell viability was expressed as a percentage of control.

MIP/5FU cells = assay: Peptide assay, cell viability (MTS), 5FU resistant cells; type: cell-based; conditions: for cell viability / sensitivity to 5-FU: peptide 96 or 200 μg/ml plus 5-FU 500 μM, compared to 5-FU alone
Description: (§4) Resistant MIP101 cells were developed following long-term incubation with incremental concentrations of 5 fluorouracil (5-FU) (10-500 uM), irinotecan (CPT) (1-50 uM; Pharmacia), cisplatin (CIS) (1-100 uM) or etoposide (ETO) (0.1-5 uM: Sigma-Aldrich). The concentration of each agent was increased 10% every 2 weeks for a 6 month period.
as §1, §2, §3

MIP/CPT cells = assay: Transient transfection of SPARC fragments, cell viability (MTS) with irinotecan, resistant cells; type: cell-based; conditions: cells transfected with control (empty vector), 500 uM CPT-11
Description: Polynucleotide fragments corresponding to SEQ ID NO: 2, SEQ ID NO: 4 or SEQ ID NO: 6 were amplified by PCR and inserted into the pSecTag vector (Invitrogen), and verified by sequencing.
Colorectal cell lines MIP101 and MIP/CPT cells were maintained in Dulbecco's modified Eagle's medium (DMEM) (Invitrogen) supplemented with 10% fetal bovine serum (FBS) (Invitrogen), 1% penicillin/streptomycin (Invitrogen) at 37° C. and 5% CO2.
as §4
Transient transfections were performed as previously described (Tai TC et al., 2001. J Neurochem; 76:1851-9) Briefly, MIP 101 colorectal cancer cells and resistant MIP/CPT cells grown to 50-60% confluency in 96-well tissue culture plates were transfected with 1.0 μg of vector (control) or vector+SPARC fragments using PEI transfection (Tai, T. C. et al., 2002. Mol Pharmacol 61:1385-92). […] Cell proliferation was assessed by MTS assay (Promega). […]

resistant tumours = conditions: protein administered; response of resistant tumours to 5-fluorouracil, irinotecan, cisplatin or etoposide; cited from earlier work
[1] = peptide alone, high concentration (200 μg/ml)
[2] = peptide high concentration (200 μg/ml) in combination with 5-FU 500 μM

Molecule	% cell viability (MIP 101 cells; [1])	% cell viability (MIP 101 cells; [2])	% cell viability (MIP/5FU cells; [1])	% cell viability (MIP/5FU cells; [2])	other results
A: first 17 amino acids of full length SPARC with additional N-terminal residues: ESALCLPPACLPLRVPSTMRAWLFFLLCLAGRALA (ESALCLPPACLPLRVPSTMRAWIFFLLCLAGRALA; listed as Homo sapiens)	did not significantly affect	did not significantly affect	did not significantly affect	did not significantly affect	
A2: first 17 amino acids of SPARC with additional N-terminal residues: ACLPLRVPSTMRAWIFFLLCLAGRALA (listed as Homo sapiens) [Peptide A2]	did not significantly affect	did not significantly affect	did not significantly affect	did not significantly affect	
H-APQQEALPDETEVVEETVAEVTE-OH [Peptide B8]					cell viability (MIP 101 cells; peptide alone): did not affect cell viability; cell viability / sensitivity to 5-FU (MIP/5FU cells): increasing sensitivity of the resistant cells; cell viability (MIP/5FU cells; peptide alone, 96 or 200 μg/ml): did not affect cell viability
CCc1c2c(nc3ccc(OC(=O)N4CCC(N5CCCCC5)CC4)cc13)-c1cc3c(c(=O)n1C2)COC(=O)[C@]3(O)CC [CPT-11, irinotecan]					cell viability (MIP/CPT cells): remained viable
O=c1[nH]cc(F)c(=O)[nH]1 [Peptide 5-FU, 5-fluorouracil, reference compound]					cell viability (MIP/5FU cells; 5-FU alone (500 μM)): greater viability; also recorded: no effect on cell viability
B8-SCR: scrambled B8 negative control peptide QPLEAVQPTAVEEDAEVETTEEV (B8 scrambled) [Peptide B8-SCR, reference compound]	did not significantly affect	did not significantly affect	did not significantly affect	did not significantly affect	
B14: SPARC peptide CQNHHCKHGKVCELDENNTPMCVCQDPTSCP (SEQ ID NO: 9) (listed as Homo sapiens) [Peptide B14]					cell viability (MIP 101 cells; peptide alone): did not significantly affect viability; cell viability / sensitivity to 5-FU (MIP/5FU cells): cell viability decreased; cell viability (MIP/5FU cells; peptide alone, 96 or 200 μg/ml): did not significantly affect viability
A3: first 17 amino acids of SPARC with additional N-terminal residues: CLPPACLPLRVPSTMRAWIFFLLCLAGRALA (listed as Homo sapiens) [Peptide A3]	did not significantly affect	did not significantly affect	did not significantly affect	did not significantly affect	
A1: first 17 amino acids of the full length SPARC protein: MRAWIFFLLCLAGRALA (listed as Homo sapiens) [Peptide A1]	did not significantly affect	did not significantly affect	did not significantly affect	did not significantly affect	
Secreted protein acidic and rich in cysteine (protein, listed as Homo sapiens, 303 amino acid SPARC protein, also known as osteonectin) MRAWIFFLLCLAGRALAAPQQEALPDETEVVEETVAEVTEVSVGANPVQVEVGEFDDGAEETEEEVVAENPCQNHHCKHGKVCELDENNTPMCVCQDPTSCPAPIGEFEKVCSNDNKTFDSSCHFFATKCTLEGTKKGHKLHLDYIGPCKYIPPCLDSELTEFPLRMRDWLKNVLVTLYERDEDNNLLTEKQKLRVKKIHENEKRLEAGDHPVELLARDFEKNYNMYIFPVHWQFGQLDQHPIDGYLSHTELAPLRAPLIPMEHCTTRFFETCDLDNDKYIALDEWAGCFGIKQKDIDKDLVI					chemosensitizing activity (resistant tumours): chemosensitizing activity has been demonstrated
